In patent US7351706B2, “Indol-3-yl-carbonyl-spiro-piperidine derivatives” (Hoffmann-La Roche Inc., priority 2006, dated 2008):

Target: T1, human V1a receptor (Homo sapiens, UniProt P37288)
T1 construct: expressed in transfected cells; host or cells: HEK293 cells, transiently transfected; membranes prepared
Assay: human V1a receptor binding (3H-Vasopressin SPA, HEK293 membranes)
Details: 3H-Vasopressin displacement, membranes of HEK293 cells transiently transfected with human V1a; Ki by Cheng-Prussoff
Method: The human V1a receptor was cloned by RT-PCR from total human liver RNA. The coding sequence was subcloned in an expression vector after sequencing to confirm the identity of the amplified sequence. […] Cell membranes were prepared from HEK293 cells transiently transfected with the expression vector and grown in 20 liter fermenters with the following protocol.
50 g of cells are resuspended in 30 ml freshly prepared ice cold Lysis buffer (50 mM HEPES, 1 mM EDTA, 10 mM MgCl2 adjusted to pH=7.4+complete cocktail of protease inhibitor (Roche Diagnostics)). Homogenized with Polytron for 1 min and sonicated on ice for 2×2 minutes at 80% intensity (Vibracell sonicator). The preparation is centrifuged 20 min at 500 g at 4° C., the pellet is discarded and the supernatant centrifuged 1 hour at 43'000 g at 4° C. (19'000 rpm). The pellet is resuspended in 12.5 ml Lysis buffer+12.5 ml Sucrose 20% and homogenized using a Polytron for 1-2 min. The protein concentration is determined by the Bradford method and aliquots are stored at −80° C. until use. For binding studies 60 mg Yttrium silicate SPA beads (Amersham) are mixed with an aliquot of membrane in binding buffer (50 mM Tris, 120 mM NaCl, 5 mM KCl, 2 mM CaCl2, 10 mM MgCl2) for 15 minutes with mixing. 50 ul of bead/membrane mixture is then added to each well of a 96 well plate, followed by 50 ul of 4 nM 3H-Vasopressin (American Radiolabeled Chemicals). For total binding measurement 100 ul of binding buffer are added to the respective wells, for non-specific binding 100 ul of […] cold vasopressin and for compound testing 100 ul of a serial dilution of each compound in 2% DMSO. The plate is incubated 1 h at room temperature, centrifuged 1 min at 1000 g and counted on a Packard Top-Count. Non-specific binding counts are subtracted from each well and data is normalized to the maximum specific binding set at 100%. To calculate an IC 50 the curve is fitted using a non-linear regression model (XLfit) and the Ki is calculated using the Cheng-Prussoff equation.

T1 sequence (P37288 whole entry): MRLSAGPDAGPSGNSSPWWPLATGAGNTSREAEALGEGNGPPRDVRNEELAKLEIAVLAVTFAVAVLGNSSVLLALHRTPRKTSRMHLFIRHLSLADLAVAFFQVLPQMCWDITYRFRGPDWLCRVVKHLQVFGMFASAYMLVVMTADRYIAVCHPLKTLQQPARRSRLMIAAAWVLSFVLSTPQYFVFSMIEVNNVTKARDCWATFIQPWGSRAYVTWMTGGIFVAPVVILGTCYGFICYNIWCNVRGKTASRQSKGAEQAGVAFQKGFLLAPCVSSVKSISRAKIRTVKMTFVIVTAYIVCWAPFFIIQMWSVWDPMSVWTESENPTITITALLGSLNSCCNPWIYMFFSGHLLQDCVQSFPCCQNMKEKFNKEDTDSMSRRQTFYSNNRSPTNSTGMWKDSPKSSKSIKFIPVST

Row | Structure (SMILES) | Ki
1 | O=C1Nc2ccccc2C2(CCN(C(=O)c3cn(CC(=O)c4ccccn4)c4cc(Cl)ccc34)CC2)O1 [Example 26, 1′-{[6-Chloro-1-(2-oxo-2-pyridin-2-ylethyl)-1H-indol-3-yl]carbonyl}spiro[3,1-benzoxazine-4,4′-piperidin]-2(1H)-one] | 8 nM
2 | O=C1CC2(CCN(C(=O)c3c[nH]c4ccccc34)CC2)c2cc(Br)ccc2N1 [Example 2, 6′-Bromo-1-(1H-indol-3-ylcarbonyl)-1′H-spiro[piperidine-4,4′-quinolin]-2′(3′H)-one] | 2050 nM
3 | CN(C)CCN1C(=O)OC2(CCN(C(=O)c3c[nH]c4cc(Cl)ccc34)CC2)c2cc(Cl)ccc21 [Example 3, 6-Chloro-1′-[(6-chloro-1H-indol-3-yl)carbonyl]-1-[2-(dimethylamino)ethyl]spiro[3,1-benzoxazine-4,4′-piperidin]-2(1H)-one] | 402 nM
4 | O=C1Nc2ccccc2C2(CCN(C(=O)c3cn(CC(=O)c4ccccc4F)c4cc(Cl)ccc34)CC2)O1 [Example 23, 1′-({6-Chloro-1-[2-(2-fluorophenyl)-2-oxoethyl]-1H-indol-3-yl}carbonyl)spiro[3,1-benzoxazine-4,4′-piperidin]-2(1H)-one] | 2 nM
5 | O=C1Nc2ccccc2C2(CCN(C(=O)c3cn(CC(=O)N4CCCCC4)c4cc(Cl)ccc34)CC2)O1 [Example 15, 1′-{[6-Chloro-1-(2-oxo-2-piperidin-1-ylethyl)-1H-indol-3-yl]carbonyl}spiro[3,1-benzoxazine-4,4′-piperidin]-2(1H)-one] | 7 nM
6 | O=C1Nc2ccccc2C2(CCN(C(=O)c3cn(C(=O)c4ccccc4F)c4cc(Cl)ccc34)CC2)O1 [Example 7, 1′-{[6-Chloro-1-(2-fluorobenzoyl)-1H-indol-3-yl]carbonyl}spiro[3,1-benzoxazine-4,4′-piperidin]-2(1H)-one] | 117 nM
7 | O=C1Nc2ccccc2C2(CCN(C(=O)c3cn(Cc4cccc(F)c4)c4cc(Cl)ccc34)CC2)O1 [Example 11, 1′-{[6-Chloro-1-(3-fluorobenzyl)-1H-indol-3-yl]carbonyl}spiro[3,1-benzoxazine-4,4′-piperidin]-2(1H)-one] | 5 nM
8 | CC(C)(C)OC(=O)Cn1cc(C(=O)N2CCC3(CC2)OC(=O)Nc2ccccc23)c2ccc(Cl)cc21 [Example 20, tert-Butyl {6-chloro-3-[(2-oxo-1,2-dihydro-1′H-spiro[3,1-benzoxazine-4,4′-piperidin]-1′-yl)carbonyl]-1H-indol-1-yl}acetate] | 10 nM
9 | O=C1Nc2ccccc2C2(CCN(C(=O)c3c[nH]c4cc(Cl)ccc34)CC2)O1 [Example 1, 1′-[(6-Chloro-1H-indol-3-yl)carbonyl]spiro[3,1-benzoxazine-4,4′-piperidin]-2(1H)-one] | 32 nM
10 | O=C1Nc2ccccc2C2(CCN(C(=O)c3cn(CC(=O)c4cc(F)cc(F)c4)c4cc(Cl)ccc34)CC2)O1 [Example 22, 1′-({6-Chloro-1-[2-(3,5-difluorophenyl)-2-oxoethyl]-1H-indol-3-yl}carbonyl)spiro[3,1-benzoxazine-4,4′-piperidin]-2(1H)-one] | 200 nM
11 | O=C1Nc2ccccc2C2(CCN(C(=O)c3cn(-c4cc(F)cc(F)c4)c4cc(Cl)ccc34)CC2)O1 [Example 5, 1′-{[6-Chloro-1-(3,5-difluorophenyl)-1H-indol-3-yl]carbonyl}spiro[3,1-benzoxazine-4,4′-piperidin]-2(1H)-one] | 130 nM
12 | O=C1Nc2ccccc2C2(CCN(C(=O)c3cn(Cc4cc(F)cc(F)c4)c4cc(Cl)ccc34)CC2)O1 [Example 10, 1′-{[6-Chloro-1-(3,5-difluorobenzyl)-1H-indol-3-yl]carbonyl}spiro[3,1-benzoxazine-4,4′-piperidin]-2(1H)-one] | 3 nM
13 | O=C1Nc2ccccc2C2(CCN(C(=O)c3cn(CC(=O)c4cccc(F)c4)c4cc(Cl)ccc34)CC2)O1 [Example 12, 1′-({6-Chloro-1-[2-(3-fluorophenyl)-2-oxoethyl]-1H-indol-3-yl}carbonyl)spiro[3,1-benzoxazine-4,4′-piperidin]-2(1H)-one] | 7 nM
14 | CNC(=O)Cn1cc(C(=O)N2CCC3(CC2)CNC(=O)c2ccccc23)c2ccc(Cl)cc21 [Example 28, 2-{6-chloro-3-[(1-oxo-2,3-dihydro-1H, 1′H-spiro[isoquinoline-4,4′-piperidin]-1′-yl)carbonyl]-1H-indol-1-yl}-N-methylacetamide] | 166 nM
15 | CN(C)C(=O)Cn1cc(C(=O)N2CCC3(CC2)OC(=O)Nc2ccccc23)c2ccc(Cl)cc21 [Example 17, 2-{6-Chloro-3-[(2-oxo-1,2-dihydro-1′H-spiro[3,1-benzoxazine-4,4′-piperidin]-1′-yl)carbonyl]-1H-indol-1-yl}-N,N-dimethylacetamide] | 5.7 nM
16 | CCN(CC)C(=O)Cn1cc(C(=O)N2CCC3(CC2)OC(=O)Nc2ccccc23)c2ccc(Cl)cc21 [Example 18, 2-{6-Chloro-3-[(2-oxo-1,2-dihydro-1H-spiro[3,1-benzoxazine-4,4′-piperidin]-1′-yl)carbonyl]-1H-indol-1-yl}-N,N-diethylacetamide] | 6 nM
17 | Cc1oc(-c2ccccc2)nc1C(=O)Cn1cc(C(=O)N2CCC3(CC2)OC(=O)Nc2ccccc23)c2ccc(Cl)cc21 [Example 27, 1′-({6-Chloro-1-[2-(5-methyl-2-phenyl-1,3-oxazol-4-yl)-2-oxoethyl]-1H-indol-3-yl}carbonyl)spiro[3,1-benzoxazine-4,4′-piperidin]-2(1H)-one] | 29 nM
18 | O=C1Nc2ccc(Cl)cc2C2(CCN(C(=O)c3c[nH]c4cc(Cl)ccc34)CC2)O1 [Example 4, 6-Chloro-1′-[(6-chloro-1H-indol-3-yl)carbonyl]spiro[3,1-benzoxazine-4,4′-piperidin]-2(1H)-one] | 310 nM
19 | N#CCCn1cc(C(=O)N2CCC3(CC2)OC(=O)Nc2ccccc23)c2ccc(Cl)cc21 [Example 24, 3-{6-Chloro-3-[(2-oxo-1,2-dihydro-1′H-spiro[3,1-benzoxazine-4,4′-piperidin]-1′-yl)carbonyl]-1H-indol-1-yl}propanenitrile] | 10 nM
20 | O=C1Nc2ccccc2C2(CCN(C(=O)c3cn(CC(=O)c4ccc(F)c(F)c4)c4cc(Cl)ccc34)CC2)O1 [Example 13, 1′-({6-Chloro-1-[2-(3,4-difluorophenyl)-2-oxoethyl]-1H-indol-3-yl}carbonyl)spiro[3,1-benzoxazine-4,4′-piperidin]-2(1H)-one] | 8 nM
21 | O=C1Nc2ccccc2C2(CCN(C(=O)c3cn(C(=O)c4cccc(F)c4)c4cc(Cl)ccc34)CC2)O1 [Example 6, 1′-{[6-Chloro-1-(3-fluorobenzoyl)-1H-indol-3-yl]carbonyl}spiro[3,1-benzoxazine-4,4′-piperidin]-2(1H)-one] | 118 nM
22 | O=C1Nc2ccccc2C2(CCN(C(=O)c3cn(C(=O)N4CCCCC4)c4cc(Cl)ccc34)CC2)O1 [Example 19, 1′-{[6-Chloro-1-(piperidin-1-ylcarbonyl)-1H-indol-3-yl]carbonyl}spiro[3,1-benzoxazine-4,4′-piperidin]-2(1H)-one] | 46 nM
23 | O=C1Nc2ccccc2C2(CCN(C(=O)c3cn(C(=O)c4cc(F)cc(F)c4)c4cc(Cl)ccc34)CC2)O1 [Example 21, 1′-{[6-Chloro-1-(3,5-difluorobenzoyl)-1H-indol-3-yl]carbonyl}spiro[3,1-benzoxazine-4,4′-piperidin]-2(1H)-one] | 88 nM
24 | O=C1Nc2ccccc2C2(CCN(C(=O)c3cn(CC(=O)N4CCOCC4)c4cc(Cl)ccc34)CC2)O1 [Example 16, 1′-{[6-Chloro-1-(2-morpholin-4-yl-2-oxoethyl)-1H-indol-3-yl]carbonyl}spiro[3,1-benzoxazine-4,4′-piperidin]-2(1H)-one] | 20 nM
25 | CC(C#N)n1cc(C(=O)N2CCC3(CC2)OC(=O)Nc2ccccc23)c2ccc(Cl)cc21 (centres unmarked) [Example 25, 2-{6-Chloro-3-[(2-oxo-1,2-dihydro-1′H-spiro[3,1-benzoxazine-4,4′-piperidin]-1′-yl)carbonyl]-1H-indol-1-yl}propanenitrile] | 28 nM
26 | O=C1Nc2ccccc2C2(CCN(C(=O)c3cn(C(=O)c4cccc(F)c4F)c4cc(Cl)ccc34)CC2)O1 [Example 8, 1′-{[6-Chloro-1-(2,3-difluorobenzoyl)-1H-indol-3-yl]carbonyl}spiro[3,1-benzoxazine-4,4′-piperidin]-2(1H)-one] | 136 nM
